Common to all, as to assay type: in vivo
The subject of one assay is Amaranthus retroflexus. The assay can be described thus: greenhouse herbicidal test, pre-emergence treatment. The following applies: pre-emergence method, scale from 0 to 100, read-out: herbicidal activity against Amaranthus retroflexus; for pest or weed control at 50 g/ha: application rate 50 g/ha; for pest or weed control at 25 g/ha: application rate 25 g/ha. The text has this:
(§1) The seeds of the test plants were sown separately for each species. For the pre-emergence treatment, the active ingredients, which had been suspended or emulsified in water, were applied directly after sowing by means of finely distributing nozzles. The containers were irrigated gently to promote germination and growth and subsequently covered with transparent plastic hoods until the plants had rooted. This cover caused uniform germination of the test plants, unless this has been impaired by the active ingredients. Depending on the species, the plants were kept at 10-25° C. or 20-35° C. The test period extended over 2 to 4 weeks. During this time, the plants were tended, and their response to the individual treatments was evaluated. Evaluation was carried out using a scale from 0 to 100. 100 means no emergence of the plants, or complete destruction of at least the aerial moieties, and 0 means no damage, or normal course of growth. A good herbicidal activity is given at values of at least 70 and a very good herbicidal activity is given at values of at least 85. The plants used in the greenhouse experiments belonged to the following species: [table]

The next assay deals with Chenopodium album. The description is as above. The following applies: pre-emergence method, application rate 50 g/ha, scale from 0 to 100, read-out: herbicidal activity against Chenopodium album.
Text: as §1

In assay [1] the test system is Abutilon theophrasti. The description is as above. The note with it: pre-emergence method, application rate 50 g/ha; scale from 0 to 100.
Text: as §1

Assay [2] has as its system Abutilon theophrasti. The assay can be described thus: greenhouse herbicidal test, post-emergence treatment. The following applies: post-emergence method, application rate 1000 g/ha; scale from 0 to 100. The source says: (§2) The seeds of the test plants were sown separately for each species. For the post-emergence treatment, the test plants were first grown to a height of 3 to 15 cm, depending on the plant habit, and only then treated with the active ingredients which had been suspended or emulsified in water. For this purpose, the test plants were either sown directly and grown in the same containers, or they were first grown separately as seedlings and transplanted into the test containers a few days prior to treatment. Depending on the species, the plants were kept at 10-25° C. or 20-35° C. The test period extended over 2 to 4 weeks. During this time, the plants were tended, and their response to the individual treatments was evaluated. Evaluation was carried out using a scale from 0 to 100. 100 means no emergence of the plants, or complete destruction of at least the aerial moieties, and 0 means no damage, or normal course of growth. A good herbicidal activity is given at values of at least 70 and a very good herbicidal activity is given at values of at least 85. The plants used in the greenhouse experiments belonged to the following species: [table]

Another assay has as its system Malva neglecta. The assay is described as above. The following applies: post-emergence method, application rate 12.5 g/ha; scale from 0 to 100.
Text: as §2

The next assay concerns Amaranthus palmeri. Described as above. The note with it: post-emergence method, application rate 12.5 g/ha; scale from 0 to 100.
Text: as §2

The next assay concerns Kochia scoparia. Described as above. The following applies: post-emergence method, application rate 12.5 g/ha; scale from 0 to 100.
Text: as §2

A further assay has as its system Viola arvensis. Nature of the assay: greenhouse herbicidal test, pre-emergence treatment. The following applies: pre-emergence method, application rate 25 g/ha; scale from 0 to 100.
Text: as §1

As to `C#CCN1C(=O)C(F)(F)Oc2cc(F)c(N3C(=O)[C@H]4C[C@H](F)CN4C3=O)cc21` [Example 2, (6S,7aR)-6-Fluoro-2-(2,2,7-trifluoro-3-oxo-4-prop-2-ynyl-3,4-dihydro-2H-benzo[1,4]-oxazin-6-yl)-tetrahydro-pyrrolo[1,2-c]imidazole-1,3-dione], the pest or weed control at 50 g/ha with Amaranthus retroflexus and in the assay with Chenopodium album was at least 85% throughout. In addition, in the assay on Abutilon theophrasti [1], the “herbicidal activity against Abutilon theophrasti” value was “very good herbicidal activity (a very good herbicidal activity is given at values of at least 85)”.

`C#CCN1C(=O)C(F)(F)Oc2cc(F)c(-n3nc4n(c3=O)CCCC4)cc21` [Example 9]: the pest or weed control at 50 g/ha with Amaranthus retroflexus and in the assay with Chenopodium album was at least 85% in each case. Further, in the assay with Abutilon theophrasti [1], the “herbicidal activity against Abutilon theophrasti” value is “very good herbicidal activity (a very good herbicidal activity is given at values of at least 85)”.

Regarding `C#CCN1C(=O)C(F)(F)Oc2cc(F)c(N3C(=O)OC(=C(C)C)C3=O)cc21` [Example 10], the pest or weed control at 50 g/ha with Amaranthus retroflexus and in the assay with Chenopodium album was at least 85% each time. Moreover, in the assay with Abutilon theophrasti [1], the “herbicidal activity against Abutilon theophrasti” value is listed as “very good herbicidal activity (a very good herbicidal activity is given at values of at least 85)”.

Take `C#CCN1C(=O)C(F)(F)Oc2cc(F)c(-n3nc(C)n(C(F)F)c3=O)cc21` [Example 11]: the pest or weed control at 50 g/ha with Amaranthus retroflexus and with Chenopodium album was at least 85% throughout. The “herbicidal activity against Abutilon theophrasti” value with Abutilon theophrasti [1] is recorded as “very good herbicidal activity (a very good herbicidal activity is given at values of at least 85)”.

Take `C#CCN1C(=O)C(F)(F)Oc2cc(F)c(-n3nc(C)nc3OC(F)F)cc21` [Example 12]: the pest or weed control at 50 g/ha in the assay on Amaranthus retroflexus and with Chenopodium album was at least 85% throughout. In addition, the “herbicidal activity against Abutilon theophrasti” value with Abutilon theophrasti [1] was “very good herbicidal activity (a very good herbicidal activity is given at values of at least 85)”.

`C#CCN1C(=O)C(F)(F)Oc2cc(F)c(/N=c3\snc4n3CC(C)(C)C4)cc21` [Example 13]: the pest or weed control at 50 g/ha in the assay on Amaranthus retroflexus and in the assay on Chenopodium album was at least 85% each time.

For `C#CCN1C(=O)C(F)(F)Oc2cc(F)c(N3C(=O)CC(C)CC3=O)cc21` [Example 14], the pest or weed control at 50 g/ha with Amaranthus retroflexus and in the assay on Chenopodium album was at least 85% in each case. Besides, in the assay on Abutilon theophrasti [1], the “herbicidal activity against Abutilon theophrasti” value is listed as “very good herbicidal activity (a very good herbicidal activity is given at values of at least 85)”.

With `C#CCN1C(=O)C(F)(F)Oc2cc(F)c(N3C(=O)c4ccc(F)cc4C3=O)cc21` [Example 15], the pest or weed control at 50 g/ha in the assay on Amaranthus retroflexus and with Chenopodium album was at least 85% throughout.

With `C#CCN1C(=O)C(F)(F)Oc2cc(F)c(/N=c3\scc(C(F)(F)F)n3C)cc21` [Example 16], the pest or weed control at 50 g/ha in the assay with Amaranthus retroflexus and in the assay with Chenopodium album was at least 85% in each case.

As for `C#CCN1C(=O)C(F)(F)Oc2cc(F)c(N3C(=O)CC(=C(C)C)C3=O)cc21` [Example 17], the pest or weed control at 50 g/ha with Amaranthus retroflexus and with Chenopodium album was at least 85% throughout.

On to `Cn1nc(-c2cc3c(cc2F)OC(F)(F)C(=O)N3)cc1C(F)(F)F` [Example 19], for which the “herbicidal activity against Abutilon theophrasti” value in the assay on Abutilon theophrasti [2] was “very good herbicidal activity (a very good herbicidal activity is given at values of at least 85)”.

In the case of `C#CCN1C(=O)C(F)(F)Oc2cc(F)c(-n3ncc(C(F)(F)F)c(C)c3=O)cc21` [Ia48, 2,2,7-Trifluoro-6-(5-methyl-6-oxo-4-trifluoromethyl-6H-pyridazin-1-yl)-4-prop-2-ynyl-4H-benzo[1,4]oxazin-3-one], the “herbicidal activity against Malva neglecta” value in the assay with Malva neglecta is listed as “very good herbicidal activity (a very good herbicidal activity is given at values of at least 85)”. Further, the “herbicidal activity against Amaranthus palmeri” value in the assay on Amaranthus palmeri is given as “very good herbicidal activity (a very good herbicidal activity is given at values of at least 85)”. Also, the “herbicidal activity against Kochia scoparia” value in the assay on Kochia scoparia is “very good herbicidal activity (a very good herbicidal activity is given at values of at least 85)”. For the same compound, the “herbicidal activity against Viola arvensis” value in the assay with Viola arvensis is given as “very good herbicidal activity (a very good herbicidal activity is given at values of at least 85)”. Besides, the pest or weed control at 25 g/ha in the assay on Amaranthus retroflexus is at least 85%.

Take `C#CCN1C(=O)C(F)(F)Oc2cc(F)c(/N=c3\sc(=O)n4n3CCCC4)cc21` [If48]: the pest or weed control at 50 g/ha with Amaranthus retroflexus and with Chenopodium album was at least 85% throughout. For the same compound, the “herbicidal activity against Abutilon theophrasti” value with Abutilon theophrasti [1] is recorded as “very good herbicidal activity (a very good herbicidal activity is given at values of at least 85)”.

In the case of `C#CCN1C(=O)C(F)(F)Oc2cc(F)c(-n3nc(C(C)(C)C)oc3=O)cc21` [Ig48, 6-(5-tert-Butyl-2-oxo-[1,3,4]oxadiazol-3-yl)-2,2,7-trifluoro-4-prop-2-ynyl-4H-benzo[1,4]oxazin-3-one], the “herbicidal activity against Malva neglecta” value with Malva neglecta was “very good herbicidal activity (a very good herbicidal activity is given at values of at least 85)”. The “herbicidal activity against Amaranthus palmeri” value in the assay on Amaranthus palmeri is “very good herbicidal activity (a very good herbicidal activity is given at values of at least 85)”. The “herbicidal activity against Kochia scoparia” value with Kochia scoparia is on record as “good herbicidal activity (A good herbicidal activity is given at values of at least 70)”. In addition, in the assay on Viola arvensis, the “herbicidal activity against Viola arvensis” value was “very good herbicidal activity (a very good herbicidal activity is given at values of at least 85)”. Also, the pest or weed control at 25 g/ha in the assay on Amaranthus retroflexus is at least 85%.

Take `C#CCN1C(=O)C(F)(F)Oc2cc(F)c(N3C(=O)C(=O)N(CCC)C3=S)cc21` [Ii48, 1-Propyl-2-thioxo-3-(2,2,7-trifluoro-3-oxo-4-prop-2-ynyl-3,4-dihydro-2H-benzo[1,4]oxazin-6-yl)-imidazolidine-4,5-dione]: the “herbicidal activity against Malva neglecta” value in the assay with Malva neglecta is on record as “very good herbicidal activity (a very good herbicidal activity is given at values of at least 85)”. Besides, the “herbicidal activity against Kochia scoparia” value in the assay with Kochia scoparia is “very good herbicidal activity (a very good herbicidal activity is given at values of at least 85)”.

Take `C#CCN1C(=O)C(F)(F)Oc2cc(F)c(-n3c(=O)c4ccccc4n(C)c3=O)cc21` [Ik48, 1-Methyl-3-(2,2,7-trifluoro-3-oxo-4-prop-2-ynyl-3,4-dihydro-2H-benzo[1,4]oxazin-6-yl)-1H-quinazoline-2,4-dione]: the “herbicidal activity against Malva neglecta” value in the assay on Malva neglecta was “very good herbicidal activity (a very good herbicidal activity is given at values of at least 85)”. In addition, in the assay with Amaranthus palmeri, the “herbicidal activity against Amaranthus palmeri” value is “very good herbicidal activity (a very good herbicidal activity is given at values of at least 85)”. Also, the “herbicidal activity against Kochia scoparia” value with Kochia scoparia is listed as “very good herbicidal activity (a very good herbicidal activity is given at values of at least 85)”. In the assay with Viola arvensis, the “herbicidal activity against Viola arvensis” value is on record as “good herbicidal activity (A good herbicidal activity is given at values of at least 70)”. Also, the pest or weed control at 25 g/ha in the assay with Amaranthus retroflexus is at least 85%.

Values taken from patent publication US8669208B2, “Herbicidal benzoxazinones” (BASF SE, priority 2010, dated 2014).
